Columns and labels:
Assay type in all cases: in vivo
Echinochloa crus-galli [1] = assay: Test Example 2: herbicidal effect test by treatment during growing period in paddy field; conditions: treatment 7 days after sowing, 120 g/10a, evaluated 14 days after treatment
Outline: (§1)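 Paddy soil in flooded pots (~3 cm water), 30 seeds per species sown 0–1 cm deep, greenhouse. Emulsifiable concentrate diluted in water and dripped into the water 7 days after sowing at 120 g a.i. per 10 are. Suppression (%) from dry weight vs untreated, 14 days post-treatment, two replicates.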

Monochoria vaginalis [2] = assay: as above; conditions: treatment 7 days after sowing, 120 g/10a, evaluated 14 days after treatment
Outline: as §1

Scirpus juncoides [3] = assay: as above; conditions: treatment 7 days after sowing, 120 g/10a, evaluated 14 days after treatment
Outline: as §1

Lindernia pyxidaria [4] = assay: as above; conditions: treatment 7 days after sowing, 120 g/10a, evaluated 14 days after treatment
Outline: as §1

Echinochloa crus-galli [5] = assay: Test Example 1: herbicidal effect test by soil treatment in paddy field; conditions: 120 g/10a, paddy soil treatment just after sowing, 14 days after treatment
Outline: (§2)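 Emulsifiable-concentrate formulation, water-diluted, dosed onto flooded paddy pots at 120 g a.i./10 are directly after sowing. Readout: % suppression by dry weight relative to untreated, 14 d, duplicate plots.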

Monochoria vaginalis [6] = assay: as above; conditions: 120 g/10a, paddy soil treatment just after sowing, 14 days after treatment
Outline: as §2

Scirpus juncoides [7] = assay: as above; conditions: 120 g/10a, paddy soil treatment just after sowing, 14 days after treatment
Outline: as §2

Lindernia pyxidaria [8] = assay: as above; conditions: 120 g/10a, paddy soil treatment just after sowing, 14 days after treatment
Outline: as §2

Echinochloa crus-galli [9] = assay: Test Example 3: herbicidal effect test by soil treatment in upland field; conditions: upland field soil treatment 1 day after sowing; 120 g/10a; evaluated 14 days after treatment
Procedure: (§3) This test was performed with two replications per one formulation concentration plot, and 14 days after the formulation treatments, the weed suppression rate (%) was determined according to the following equation (Math. 1). Weed suppression rate (%)=(1−an average dry weight (g) of plants in treated plots/an average dry weight (g) of plants in untreated plots)×100 [Math. 1]
(§4) A pot having a size of 36 cm^2 was filled with field soil (alluvial soil) and after uniformly mixing the soil of the surface layer of 1 cm with 20 grains of each weed seed of crabgrass, Echinochloa crus-galli, Chenopodium album and Amaranthus viridis, the surface layer was pressed lightly. One day after the sowing, an emulsifiable concentrate prepared according to Formulation Example 5 by using the compound shown in Table 7 below was diluted with water, and the water-diluted formulation was sprayed on the soil surface at a ratio of 100 liter per 10 are. The application rate of the active ingredient, by conversion, corresponded to 120 g per 10 are. Fourteen days after the formulation treatment, the herbicidal effect was evaluated by the same criteria as in Test Example 1.

Chenopodium album [10] = assay: as above; conditions: upland field soil treatment 1 day after sowing; 120 g/10a; evaluated 14 days after treatment
Procedure: as §3, §4

Amaranthus viridis [11] = assay: as above; conditions: upland field soil treatment 1 day after sowing; 120 g/10a; evaluated 14 days after treatment
Procedure: as §3, §4

crabgrass [12] = assay: as above; conditions: upland field soil treatment 1 day after sowing; 120 g/10a; evaluated 14 days after treatment
Procedure: as §3, §4

Echinochloa crus-galli [13] = assay: Test Example 4: herbicidal effect test by foliage treatment in upland field; conditions: upland field foliage treatment 7 days after sowing; 120 g/10a; evaluated 14 days after treatment
Procedure: as §3
as §4, with “Seven days” for “One day”, “8” for “7”

Chenopodium album [14] = assay: as above; conditions: upland field foliage treatment 7 days after sowing; 120 g/10a; evaluated 14 days after treatment
Procedure: as §3
as §4, with “Seven days” for “One day”, “8” for “7”

Amaranthus viridis [15] = assay: as above; conditions: upland field foliage treatment 7 days after sowing; 120 g/10a; evaluated 14 days after treatment
Procedure: as §3
as §4, with “Seven days” for “One day”, “8” for “7”

crabgrass [16] = assay: as above; conditions: upland field foliage treatment 7 days after sowing; 120 g/10a; evaluated 14 days after treatment
Procedure: as §3
as §4, with “Seven days” for “One day”, “8” for “7”

SMILES	weed suppression rate, Echinochloa crus-galli (Echinochloa crus-galli [1])	weed suppression rate, Monochoria vaginalis (Monochoria vaginalis [2])	weed suppression rate, Scirpus juncoides (Scirpus juncoides [3])	weed suppression rate, Lindemia pyxidaria (Lindernia pyxidaria [4])	weed suppression rate, Echinochloa crus-galli (Echinochloa crus-galli [5])	weed suppression rate, Monochoria vaginalis (Monochoria vaginalis [6])	weed suppression rate, Scirpus juncoides (Scirpus juncoides [7])	weed suppression rate, Lindemia pyxidaria (Lindernia pyxidaria [8])	herbicidal effect (weed suppression rate), Echinochloa crus-galli (Echinochloa crus-galli [9])	herbicidal effect (weed suppression rate), Chenopodium album (Chenopodium album [10])	herbicidal effect (weed suppression rate), Amaranthus viridis (Amaranthus viridis [11])	herbicidal effect (weed suppression rate), Crabgrass (crabgrass [12])	herbicidal effect (weed suppression rate), Echinochloa crus-galli (Echinochloa crus-galli [13])	herbicidal effect (weed suppression rate), Chenopodium album (Chenopodium album [14])	herbicidal effect (weed suppression rate), Amaranthus viridis (Amaranthus viridis [15])	herbicidal effect (weed suppression rate), Crabgrass (crabgrass [16])
CC(C)N(C(=O)n1ncn(S(=O)(=O)C(C)C)c1=O)c1ccc(Cl)cn1 [Compound 1-93]	100%	90%	90%	100%	90%	80%	90%	100%	90%	40%	80%	90%	90%	0%	0%	90%
CC(C)N(C(=O)n1ncn(S(=O)(=O)N(C)C)c1=O)c1ccc(F)cc1 [Compound 1-1095]	90%	80%	90%	80%	90%	80%	90%	80%	80%	80%	90%	90%	80%	80%	90%	90%
C=CS(=O)(=O)n1cnn(C(=O)N(c2ccc(F)cc2F)C(C)C)c1=O [Compound 1-142]	90%	80%	90%	80%	100%	100%	100%	100%	100%	100%	100%	100%	80%	80%	90%	90%
CC(C)N(C(=O)n1ncn(S(=O)(=O)C2CC2)c1=O)c1c(F)cccc1F [Compound 1-200]	100%	90%	100%	80%	100%	80%	100%	100%	100%	40%	40%	100%	100%	70%	80%	100%
CC(C)N(C(=O)n1ncn(S(=O)(=O)C(C)C)c1=O)c1cccnc1F [Compound 1-241]	100%	80%	80%	90%	100%	90%	80%	90%	90%	90%	90%	90%	90%	70%	50%	90%
CC(C)N(C(=O)n1ncn(S(=O)(=O)C2CC2)c1=O)c1ccc(F)cc1Cl [Compound 1-214]	90%	80%	90%	80%	90%	80%	90%	80%	80%	80%	90%	90%	80%	80%	90%	90%
CC(C)N(C(=O)n1ncn(S(=O)(=O)C2CC2)c1=O)c1ccc(Cl)cc1F [Compound 1-215]	100%	100%	100%	100%	100%	100%	100%	100%	80%	80%	80%	80%	90%	60%	60%	90%
CC(C)N(C(=O)n1ncn(S(=O)(=O)C2CCCCC2)c1=O)c1ccccc1 [Compound 1-295]	90%	80%	90%	80%	90%	80%	90%	80%	80%	80%	90%	90%	80%	80%	90%	90%
CC(C)N(C(=O)n1ncn(S(=O)(=O)C2CC2)c1=O)c1ccc(F)cc1 [Compound 1-171]	100%	90%	90%	90%	100%	100%	100%	100%	100%	100%	90%	100%	80%	80%	90%	90%
